The text below walks through data of ChEMBL document CHEMBL1201862, “PubChem BioAssay data set” (2004).

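All cell lines were grown in 96-well plates and treated with compound for 48 hours. GI50 is the concentration that inhibits growth by half.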 The source made the active and inactive calls. No stated cut-off is given here; in the data, active = GI50 up to about 1.1 µM and inactive = higher. Where a SMILES comes first, the peptide text is derived from it. Bounds are passed on as bounds.

Test systems include LOX IMVI; NCI/ADR-RES; SK-MEL-28; OVCAR-5; OVCAR-8; UO-31; COLO 205; SN12C; IGROV-1; SF-268; SR; SK-MEL-5; Malme-3M; CAKI-1; KM12; UACC-62; HOP-62; SK-OV-3; HOP-92; SK-MEL-2.
Test in all cases: inhibition of tumour cell growth, NCI panel, 48 h

Turning to `COc1cc2c(c(OC)c1OC)C(=O)[C@@H]1[C@H]2N1C(N)=O`, the GI50 in the test with LOX IMVI is > 100 µM (inactive); in the test with NCI/ADR-RES, > 100 µM (inactive); with SK-MEL-28, > 100 µM (inactive); in the test with OVCAR-5, 87.3 µM (inactive); in the test on OVCAR-8, > 100 µM (inactive); in the test on UO-31 it was > 100 µM (inactive). Also, the GI50 was 91.2 µM (inactive) in the test on COLO 205; > 100 µM (inactive) with SN12C; 94.8 µM (inactive) in the test with IGROV-1; > 100 µM (inactive) in the test with SF-268; > 100 µM (inactive) in the test on SR; 77.4 µM (inactive) with SK-MEL-5. The GI50 in the test with Malme-3M is > 100 µM (inactive); in the test with CAKI-1 it was > 100 µM (inactive); in the test on KM12, > 100 µM (inactive); in the test with UACC-62, 22.1 µM (inactive); with HOP-62 it was > 100 µM (inactive).

For the molecule `COC1=C(N2CC2)C(=O)c2nc3n(c2C1=O)CCC3`, the GI50 in the test with LOX IMVI was 0.406 µM (active); in the test with NCI/ADR-RES, 0.453 µM (active); in the test with SK-MEL-28, 4.01 µM (inactive); in the test with SK-OV-3, 1.18 µM (inactive); with OVCAR-5, 1.26 µM (inactive); with OVCAR-8, 1.35 µM (inactive). Also, the GI50 in the test on UO-31 was 0.224 µM (active); in the test with COLO 205, 0.656 µM (active); in the test with SN12C, 1.3 µM (inactive); in the test on IGROV-1 it was 1.43 µM (inactive); in the test with SF-268, 1.6 µM (inactive); in the test with SR, 0.357 µM (active). Further, the GI50 was 1.29 µM (inactive) in the test on SK-MEL-5; 3.33 µM (inactive) with HOP-92; 0.305 µM (active) in the test on Malme-3M; 1.37 µM (inactive) in the test with KM12; 1.54 µM (inactive) with UACC-62; 0.953 µM (active) in the test with HOP-62.

As to `NC(=O)C1CCCN1C(=O)C(N)Cc1ccccc1` (stereo not drawn) (H-Phe-Pro-NH2; configuration not given here), the GI50 with LOX IMVI, in the test with NCI/ADR-RES, with SK-MEL-28, in the test with OVCAR-5, in the test on OVCAR-8 and with UO-31 was > 100 µM (inactive) throughout. For the same molecule, the GI50 with COLO 205, with IGROV-1, in the test on SF-268, in the test on SR, in the test on SK-MEL-5 and with Malme-3M was > 100 µM (inactive) in each case. Moreover, the GI50 in the test with CAKI-1, in the test on UACC-62 and in the test with HOP-62 was > 100 µM (inactive) each time.

For the molecule `C#CCOCCCC(=O)O`, the GI50 in the test with LOX IMVI, with NCI/ADR-RES, in the test with SK-MEL-28, with SK-OV-3, in the test on OVCAR-5 and with OVCAR-8 was > 100 µM (inactive) throughout. Moreover, the GI50 in the test with COLO 205, with SN12C, in the test on SK-MEL-2, in the test with IGROV-1, in the test with SR and in the test with SK-MEL-5 was > 100 µM (inactive) each time. Besides, the GI50 in the test with HOP-92, in the test on CAKI-1, with UACC-62 and in the test with HOP-62 was > 100 µM (inactive) each time.

Regarding `COc1cc(/C=C/C(=O)OCCc2ccccc2)ccc1O`, the GI50 was 14.5 µM (inactive) with LOX IMVI; 23.7 µM (inactive) in the test with NCI/ADR-RES; 13.9 µM (inactive) with SK-MEL-28; 16.1 µM (inactive) in the test with SK-OV-3; 18.2 µM (inactive) in the test on OVCAR-5; 28.5 µM (inactive) in the test on OVCAR-8. The GI50 was 13.9 µM (inactive) in the test with UO-31; 19.4 µM (inactive) in the test on COLO 205; 19.8 µM (inactive) in the test on SN12C; 21.6 µM (inactive) with SK-MEL-2; 14.1 µM (inactive) in the test with IGROV-1; 20.5 µM (inactive) with SF-268. Also, the GI50 is 24.7 µM (inactive) with SR; 19.5 µM (inactive) in the test on SK-MEL-5; 16.4 µM (inactive) in the test on Malme-3M; 15.9 µM (inactive) with CAKI-1; 14.6 µM (inactive) in the test on KM12; 12.7 µM (inactive) in the test with UACC-62. Further, the GI50 with HOP-62 was 16.3 µM (inactive).

In the case of `Cc1nc(C(N)=S)sc1C(=O)C/C(=N/N)C(=O)Nc1ccc(Cl)cc1`, the GI50 with LOX IMVI was 82.8 µM (inactive); in the test on NCI/ADR-RES it was 60.4 µM (inactive); with SK-MEL-28, > 100 µM (inactive); with SK-OV-3, > 100 µM (inactive); in the test with OVCAR-5, > 100 µM (inactive); with OVCAR-8 it was 84.1 µM (inactive). Besides, the GI50 in the test on UO-31 is 70.6 µM (inactive); in the test on SN12C, > 100 µM (inactive); in the test with SK-MEL-2, > 100 µM (inactive); with IGROV-1 it was 16.5 µM (inactive); in the test on SF-268, > 100 µM (inactive); in the test on SR, > 100 µM (inactive). Also, the GI50 was 90.2 µM (inactive) with SK-MEL-5; > 100 µM (inactive) in the test with Malme-3M; > 100 µM (inactive) with CAKI-1; 77.1 µM (inactive) in the test with KM12; > 100 µM (inactive) in the test on UACC-62; 50.8 µM (inactive) with HOP-62.

Regarding `COc1cccc(N(CN2CC=CC2=O)C(C)=O)c1`, the GI50 in the test with LOX IMVI, in the test on NCI/ADR-RES, with SK-MEL-28, in the test on SK-OV-3, in the test with OVCAR-5 and in the test on OVCAR-8 was > 100 µM (inactive) each time. In addition, the GI50 with UO-31, in the test on COLO 205, in the test on SN12C, with SK-MEL-2, in the test on IGROV-1 and in the test with SF-268 was > 100 µM (inactive) each time. Further, the GI50 with SK-MEL-5, in the test on HOP-92, in the test with Malme-3M, in the test with CAKI-1, with KM12 and in the test on UACC-62 was > 100 µM (inactive) in each case. Moreover, the GI50 with HOP-62 was > 100 µM (inactive).

With `CCOC(=O)c1nnc2c(C(=O)OCC)c3ccccc3n2c1N`, the GI50 with LOX IMVI is 5.96 µM (inactive); in the test with NCI/ADR-RES it was 3.61 µM (inactive); with SK-MEL-28, 5.85 µM (inactive); with SK-OV-3, 6.04 µM (inactive); with OVCAR-5 it was > 100 µM (inactive); with OVCAR-8 it was 5.16 µM (inactive). The GI50 in the test with UO-31 is 7.87 µM (inactive); in the test with COLO 205, 10.2 µM (inactive); with SN12C, 6.67 µM (inactive); with SK-MEL-2 it was 5.15 µM (inactive); with IGROV-1, 1.12 µM (active); in the test with SF-268, 19.3 µM (inactive). The GI50 in the test with SR was 6.92 µM (inactive); in the test on SK-MEL-5, 5.52 µM (inactive); with Malme-3M, 2.1 µM (inactive); in the test with CAKI-1, 7.48 µM (inactive); in the test with KM12, 4.43 µM (inactive); with UACC-62, 2.43 µM (inactive). The GI50 in the test on HOP-62 was 68.9 µM (inactive).

Take `COc1ccc(/N=N/c2c(C)c(C#N)c(=S)n(C3OC(COC(C)=O)C(OC(C)=O)C(OC(C)=O)C3OC(C)=O)c2C)cc1` (configuration not stated): the GI50 was > 100 µM (inactive) in the test on LOX IMVI; > 100 µM (inactive) in the test with NCI/ADR-RES; > 100 µM (inactive) with SK-MEL-28; 54.5 µM (inactive) in the test with SK-OV-3; > 100 µM (inactive) in the test on OVCAR-5; > 100 µM (inactive) in the test on UO-31. In addition, the GI50 in the test with COLO 205, in the test on SN12C, with IGROV-1, with SF-268, in the test with SR and in the test on SK-MEL-5 was > 100 µM (inactive) each time. The GI50 in the test with HOP-92 is 24.6 µM (inactive); with Malme-3M, > 100 µM (inactive); in the test on CAKI-1, > 100 µM (inactive); in the test with KM12 it was > 100 µM (inactive); in the test on UACC-62, > 100 µM (inactive); with HOP-62, 64.3 µM (inactive).

For the molecule `CCOc1ccc(/C=C2\N=C(c3ccccc3)OC2=O)cc1`, the GI50 in the test on NCI/ADR-RES, in the test on SK-MEL-28, in the test with SK-OV-3, with OVCAR-5, in the test on OVCAR-8 and in the test with UO-31 was > 100 µM (inactive) in each case. The GI50 with SK-MEL-2, in the test on IGROV-1, with SF-268, in the test on SR, in the test on SK-MEL-5 and in the test with HOP-92 was > 100 µM (inactive) in each case. Also, the GI50 with KM12, with UACC-62 and in the test with HOP-62 was > 100 µM (inactive) in each case.

Regarding `COc1ccc(C2CC(=O)CC(c3ccc(OC)cc3)C23C(=O)NC(=S)NC3=O)cc1` (configuration not stated), the GI50 with LOX IMVI, with NCI/ADR-RES, in the test with SK-MEL-28, with OVCAR-5, in the test with OVCAR-8 and in the test with UO-31 was > 100 µM (inactive) in each case. The GI50 in the test on COLO 205, with SN12C, in the test with SK-MEL-2, with IGROV-1, with SF-268 and with SR was > 100 µM (inactive) each time. Further, the GI50 in the test with SK-MEL-5, in the test with HOP-92, in the test on CAKI-1, in the test on KM12, in the test on UACC-62 and in the test on HOP-62 was > 100 µM (inactive) in each case.
